Like-named read-outs stand apart in the source and are kept apart here.
Test system: 407 cancer cell lines
Experiment: Cell viability of cancer cell lines (IC50), CellTiter-Glo Viability Assay, 96 h
Format: cell-based
Settings: for IC50: read-out: Absolute IC50
Description: Viability was determined by using the 50% inhibitory concentration (IC50) as determined with the CellTiter-Glo® Viability Assay (Promega).
Experiments were initiated by first thawing and equilibrating the CellTiter-Glo® Buffer to room temperature. The lyophilized CellTiter-Glo® Substrate was also equilibrated to room temperature. The lyophilized substrate was reconstituted with the CellTiter-Glo® buffer to form the CellTiter-Glo® Reagent.
Cells were harvested during the logarithmic growth period, counted, and the cell concentration adjusted to 4.44×10^4 cells/mL using culture medium.
Cells were allowed to grow overnight and the following day, the TO reading was obtained by adding 10 μL culture medium to each well of Plate A. The plate was allowed to equilibrate at room temperature for thirty minutes, after which 50 μL CellTiter-Glo® reagent was added to each well. The contents were mixed for 5 min on an orbital shaker to induce cell lysis. Plates were incubated for 20 minutes to stabilize the luminescent signal and the TO luminescence recorded.
Test plate B was incubated for 96 h in the humidified incubator at 37° C. with 5% CO2.
Following the incubation, the plate was equilibrated at room temperature for thirty minutes. CellTiter-Glo® (50 μL) was added to each well of the plate and contents mixed for five minutes on an orbital shaker to induce cell lysis. The luminescent signal was allowed to stabilize at room temperature for 20 minutes and the luminescence recorded.
IC50 (EC50) was calculated using a dose-response curve, fitted using a nonlinear regression model with a sigmoidal dose response. Survival rate was calculated using the formula:
The Surviving rate (%)=(LumTest article−LumMedium control)/(LumNon-treated−LumMedium control)×100%.
Absolute IC50 (EC50) was calculated according to the dose-response curve generated by the statistical software (GraphPad Prism 5.0).

Compound: N.N.[Cl][Pt][Cl] [Cisplatin, reference compound]
- IC50 (22Rv1 cells, 96 h): 3.05 µM
- IC50 (769-P cells, 96 h): 0.97 µM
- IC50 (786-O cells, 96 h): 1.43 µM
- IC50 (8505C): 2.01 µM
- IC50 (A3/KAW cells, 96 h): 0.93 µM
- IC50 (A253 cells, 96 h): 1.24 µM
- IC50 (A498 cells, 96 h): 4.28 µM
- IC50 (A549 cells, 96 h): 4.35 µM
- IC50 (A875 cells, 96 h): 1.86 µM
- IC50 (A2058, 96 h): 0.77 µM
- IC50 (A2780 cells, 96 h): 1.38 µM
- IC50 (A2780cis cells, 96 h): 5.55 µM
- IC50 (A-172 cells, 96 h): 8.58 µM
- IC50 (A-204 cells, 96 h): 1.05 µM
- IC50 (A-375, 96 h): 1.04 µM
- IC50 (A-427 cells, 96 h): 5.78 µM
- IC50 (A-431, 96 h): 2.07 µM
- IC50 (A-673 cells, 96 h): 0.26 µM
- IC50 (ACHN cells, 96 h): 1.74 µM
- IC50 (AGS cells, 96 h): 4.99 µM
- IC50 (AMO-1 cells, 96 h): 1.92 µM
- IC50 (AN3 CA, 96 h): 3 µM
- IC50 (ASH-3 cells, 96 h): 2.72 µM
- % inhibition at top conc. (AsPC-1 cells, 96 h): 78.18%
- IC50 (AsPC-1 cells, 96 h): 4.94 µM
- IC50 (BT474 cells, 96 h): 59 µM
- IC50 (BT-20 cells, 96 h): 2.15 µM
- % inhibition at top conc. (BT-483): 75.40%
- IC50 (BT-483): 48.2 µM
- IC50 (BT-549 cells, 96 h): 4.7 µM
- IC50 (BxPC-3): 1.27 µM
- IC50 (C4-2, 96 h): 14.9 µM
- % inhibition at top conc. (C666-1 cells, 96 h): 73.03%
- IC50 (C666-1 cells, 96 h): 18.1 µM
- IC50 (C-33 A cells, 96 h): 0.92 µM
- IC50 (CADO-ES1): 1.03 µM
- IC50 (CAL-27 cells, 96 h): 0.89 µM
- IC50 (CAL-120): 7.91 µM
- IC50 (CAMA-1, 96 h): 9.44 µM
- IC50 (CCK-81 cells, 96 h): 4.51 µM
- IC50 (CCRF-CEM): 0.55 µM
- IC50 (CFPAC-1): 4.13 µM
- IC50 (COLO 205, 96 h): 1.97 µM
- IC50 (COLO 320DM, 96 h): 3.18 µM
- IC50 (COV644 cells, 96 h): 14.2 µM
- IC50 (Ca Ski cells, 96 h): 6.44 µM
- IC50 (Caki-2): 3.35 µM
- IC50 (Calu-1): 4.77 µM
- % inhibition at top conc. (Calu-3, 96 h): 77.35%
- IC50 (Calu-3, 96 h): 0.35 µM
- IC50 (Calu-6): 0.71 µM
- IC50 (Caov-3 cells, 96 h): 3.61 µM
- IC50 (Capan-1): 0.68 µM
- IC50 (Capan-2): 21.9 µM
- IC50 (CoC1/DDP cells, 96 h): 5.78 µM
- IC50 (CoC1 cells, 96 h): 3.24 µM
- IC50 (DLD-1): 2.43 µM
- IC50 (DMS 53 cells, 96 h): 2.85 µM
- IC50 (DMS 79): 0.81 µM
- IC50 (DMS 114 cells, 96 h): 2.02 µM
- IC50 (DOHH-2 cells, 96 h): 0.19 µM
- IC50 (DU 145, 96 h): 1.15 µM
- IC50 (DU4475): 1.35 µM
- IC50 (DV-90 cells, 96 h): 3.25 µM
- IC50 (Daoy cells, 96 h): 0.39 µM
- IC50 (Daudi cells, 96 h): 0.21 µM
- IC50 (Detroit 562 cells, 96 h): 1.35 µM
- IC50 (DoTc2 4510 cells, 96 h): 2.84 µM
- IC50 (EBC-1, 96 h): 4.61 µM
- IC50 (EFM-192A, 96 h): 11.3 µM
- IC50 (EJM cells, 96 h): 6.74 µM
- IC50 (EOL-1): 0.46 µM
- IC50 (ES-2 cells, 96 h): 3.51 µM
- IC50 (FTC-133): 0.98 µM
- IC50 (G-292 clone A141B1 cells, 96 h): 1.11 µM
- IC50 (GTL-16 cells, 96 h): 1.09 µM
- IC50 (H4 cells, 96 h): 2.26 µM
- IC50 (HBL-1): 1.21 µM
- IC50 (HCC38): 2.86 µM
- IC50 (HCC 94 cells, 96 h): 1.98 µM
- IC50 (HCC827 cells, 96 h): 8.58 µM
- IC50 (HCC1187 cells, 96 h): 2.01 µM
- IC50 (HCC1428): 34.9 µM
- IC50 (HCC1500): 7.64 µM
- IC50 (HCC1569): 5.78 µM
- IC50 (HCC1806 cells, 96 h): 2.23 µM
- IC50 (HCC1937): 5.07 µM
- IC50 (HCC1954): 7.18 µM
- IC50 (HCC2218, 96 h): 10.8 µM
- IC50 (HCC2935): 51.7 µM
- IC50 (HCC4006, 96 h): 5.76 µM
- IC50 (HCC-78 cells, 96 h): 2.25 µM
- IC50 (HCCC-9810): 2.96 µM
- % inhibition at top conc. (HCCLM3 cells, 96 h): 60.88%
- IC50 (HCCLM3 cells, 96 h): 10.8 µM
- IC50 (HCT-8): 9.04 µM
- IC50 (HCT-15): 3.26 µM
- IC50 (HCT-116): 4.03 µM
- % inhibition at top conc. (HEC-1-A cells, 96 h): 83.97%
- IC50 (HEC-1-A cells, 96 h): 13.3 µM
- IC50 (HEC-1-B cells, 96 h): 10.6 µM
- IC50 (HEL 92.1.7): 0.48 µM
- IC50 (HGC-27 cells, 96 h): 0.77 µM
- IC50 (HL-60): 1.15 µM
- IC50 (HLE cells, 96 h): 2.48 µM
- IC50 (HM-7, 96 h): 6.26 µM
- IC50 (HPAC): 14.3 µM
- IC50 (HT-3 cells, 96 h): 4.85 µM
- IC50 (HT-29): 2.89 µM
- IC50 (HT-55): 17.7 µM
- IC50 (HT-1080, 96 h): 3.53 µM
- IC50 (HT-1376): 3.28 µM
- IC50 (HeLa 229 cells, 96 h): 7.25 µM
- IC50 (HeLa cells, 96 h): 0.28 µM
- IC50 (Hep3B): 3.08 µM
- IC50 (Hep G2/C3A, 96 h): 1.84 µM
- IC50 (Hep G2): 4.51 µM
- IC50 (HuCCT1, 96 h): 10 µM
- IC50 (HuT 78): 0.5 µM
- IC50 (IHH-4 cells, 96 h): 2.65 µM
- IC50 (IM95m cells, 96 h): 8.43 µM
- IC50 (IMR-32 cells, 96 h): 0.06 µM
- IC50 (Ishikawa, 96 h): 2.75 µM
- IC50 (J82 cells, 96 h): 0.31 µM
- IC50 (JAR): 0.61 µM
- IC50 (JEG-3 cells, 96 h): 0.52 µM
- IC50 (JHH-1 cells, 96 h): 6.04 µM
- IC50 (JHH-4 cells, 96 h): 1.07 µM
- IC50 (JHH-5 cells, 96 h): 0.85 µM
- IC50 (JHH-7 cells, 96 h): 1.83 µM
- IC50 (JIMT-1 cells, 96 h): 6.96 µM
- IC50 (JJN-3 cells, 96 h): 4.08 µM
- IC50 (JVM-2): 1.46 µM
- IC50 (JVM-3): 1.12 µM
- IC50 (JVM-13): 0.54 µM
- IC50 (JeKo-1 cells, 96 h): 1.36 µM
- IC50 (Jurkat clone E6-1): 0.47 µM
- IC50 (K-562): 5.73 µM
- IC50 (KARPAS-299 cells, 96 h): 0.89 µM
- IC50 (KARPAS-422): 1.11 µM
- % inhibition at top conc. (KATO III, 96 h): 67.05%
- IC50 (KATO III, 96 h): 10.5 µM
- IC50 (KG-1): 2.02 µM
- IC50 (KHOS/NP cells, 96 h): 1.33 µM
- IC50 (KMH-2 cells, 96 h): 2.65 µM
- IC50 (KMS-11): 2.16 µM
- IC50 (KP4 cells, 96 h): 6.25 µM
- IC50 (KPL-4): 1.37 µM
- IC50 (KYSE-70): 6.11 µM
- IC50 (KYSE-150): 1.79 µM
- IC50 (KYSE-270): 2.15 µM
- IC50 (KYSE-410 cells, 96 h): 13.5 µM
- IC50 (Kasumi-1): 2.92 µM
- IC50 (L-82): 1.16 µM
- IC50 (L-363): 1.83 µM
- IC50 (LN-18 cells, 96 h): 0.7 µM
- IC50 (LN-229 cells, 96 h): 7.68 µM
- IC50 (LNCaP clone FGC, 96 h): 3.43 µM
- IC50 (LP-1): 7.62 µM
- IC50 (LS123 cells, 96 h): 12 µM
- IC50 (LS 180): 6.27 µM
- IC50 (LS411N): 15.1 µM
- IC50 (LS513 cells, 96 h): 2.81 µM
- IC50 (LS1034 cells, 96 h): 6.52 µM
- IC50 (Li-7): 0.63 µM
- IC50 (LoVo): 8.27 µM
- IC50 (M059K cells, 96 h): 2.66 µM
- IC50 (MC/CAR cells, 96 h): 3.15 µM
- IC50 (MCF7): 11.8 µM
- IC50 (MDA-MB-231): 23 µM
- IC50 (MDA-MB-415): 37.9 µM
- IC50 (MDA-MB-436, 96 h): 0.5 µM
- IC50 (MDA-MB-453): 4.86 µM
- IC50 (MDA-MB-468 cells, 96 h): 0.27 µM
- IC50 (ME-180 cells, 96 h): 0.84 µM
- IC50 (MEG-01): 1.9 µM
- IC50 (MES-SA cells, 96 h): 0.66 µM
- IC50 (MES-SA/DX5 cells, 96 h): 2.77 µM
- IC50 (MFE-296 cells, 96 h): 3.31 µM
- % inhibition at top conc. (MHCC97-H): 83.30%
- IC50 (MHCC97-H): 7.89 µM
- IC50 (MIA PaCa-2): 2.74 µM
- IC50 (MKN1 cells, 96 h): 1.46 µM
- IC50 (MKN45, 96 h): 5.47 µM
- % inhibition at top conc. (MKN74 cells, 96 h): 84.20%
- IC50 (MKN74 cells, 96 h): 11.2 µM
- IC50 (ML-2): 1.21 µM
- IC50 (MM.1R): 0.81 µM
- IC50 (MM.1S): 1.02 µM
- IC50 (MOLM-13 cells, 96 h): 0.78 µM
- IC50 (MOLM-16 cells, 96 h): 0.87 µM
- IC50 (MOLP8 cells, 96 h): 1.75 µM
- IC50 (MS751 cells, 96 h): 4.61 µM
